Data: patent publication US8318950B2, “N-acyl amino acid derivatives, a method for the preparation thereof, a pharmaceutical composition and use thereof as anti-allergic, anti-inflammatory and hypolipidemic agents” (Otkrytoe Aktsionernoe Obschestvo-Otechestvennye Lekarstva, priority 2005, dated 2012)

Tested on: antigen-induced bronchial spasm in sensitized guinea pigs
Test: Systemic anaphylaxis in vivo: antigen-induced bronchial spasm in ovalbumin-sensitized conscious guinea pigs
Parameters: species or system guinea pig
Text: A bronchial spasm model in conscious guinea pigs actively sensitized by exposure to aerosol ovalbumin as an antigen was used [Kovaleva V. L. “Metodicheskiye ukazaniya po izucheniyu bronkholiticheskikh I protivovospalitel'nykh sredstv.//Rukovodstvo po experimental'nomy (doklinicheskomu) izucheniyu novykh pharmacologicheskikh veshchestv, Moscow. 2000. pp. 242-250].
Guinea pigs were sensitized by ovalbumin according to the method of Andersson [Anderson P. Antigen-induced bronchial anaphylaxis in actively sensitized guinea-pigs.//Allergy. 1980. Vol. 35. P. 63-71] and in 1-2 months following sensitization, bronchial spasm was induced by aerosol administration of albumin booster dose (3 mg/kg in 1 ml normal saline).
In test groups, guinea pigs were for three days administered with tested compounds at doses 10 μg/kg, 50 μg/kg, and 150 μg/kg, using a probe. In the other group of experiments, the tested compounds at dose 50 μg/kg (in 1 ml normal saline) were administered nasally (using a nebulizer) also once daily for three days. The control group was administered with normal saline. One hour post the last administration of substances, ovalbumin was administered by inhalation using a nebulizer, and intensity and duration (in seconds) of bronchial spasm reaction in animals was assessed.

[1] = by inhalation, 50 μg/kg, once daily for three days
[2] = intragastric, 10 μg/kg, three days
[3] = intragastric, 150 μg/kg, three days

SMILES: O=C(O)CCCC(=O)N[C@@H](Cc1c[nH]cn1)C(=O)O [Compound IV, N^α-glutaryl-L-histidine]
- Duration of acute phase [1]: 0 s
- Duration of sub-acute phase [1]: 400 ± 25 s
- Duration of acute phase [2]: 68.0 ± 54.7 s
- Total reaction time [2]: 428.0 ± 75.0 s
- Duration of acute phase [3]: 72.0 ± 42.1 s
- Total reaction time [3]: 337.0 ± 78.5 s
